Results published in patent publication US8017755B2, “RNA-based transcriptional regulators” (President and Fellows of Harvard College, priority 2003, dated 2011).

Columns and labels:
[1] = system: yeast; conditions: cited from earlier work
[2] = target: TMR-binding aptamer; conditions: cited from earlier work
[3] = system: S. cerevisiae; assay: Growth of yeast cultures in varying TMR concentrations; conditions: 10 μM TMR
[4] = system: S. cerevisiae cell wall; conditions: cited from earlier work
[5] = Gal4-VP16 fusions versus intact Gal4; cited from earlier work
[6] = system: HIS3 gene; assay: Survival on media lacking histidine in strain L40-ura3, which lacks the LexA-MS2 fusion protein; format: cell-based, S. cerevisiae
Excerpt: To test whether the evolved RNAs require the MS2 protein-mediated localization to the LexA promoter, we introduced the plasmids expressing two representative active clones (m26-11 and m26-15) into the yeast strain L40-ura3 which lacks the LexA-MS2 fusion protein but is otherwise identical to YBZ-1 (Bernstein, D. S., Buter, N., Stumpf, C., and Wickens, M. (2002). Analyzing mRNA-protein complexes using a yeast three-hybrid system. Methods 26, 123-141).
Media consisted of yeast nitrogen base (Sigma), 4% dextrose, and synthetic drop out supplements lacking histidine or histidine and uracil (Clontech). Yeast were cultured either in liquid medium or on agar plates at 30° C. S. cerevisiae strains YBZ-1 (MATa, ura3-52, leu2-3, 112, his3-200, trp1-1, ade2, LYS2::(LexA op)-HIS3, ura3::(LexA op)-LacZ, LexA-MS2-MS2 coat (N55K)) and L40-ura3 (MATa, ura3-52, leu2-3112, his3Δ200, trp1Δ1, ade2, LYS2::(LexA op)-HIS3, ura3::(LexA op)-LacZ) were a gift from Professor Marvin Wickens (Bernstein, D. S., Buter, N., Stumpf, C., and Wickens, M. (2002). Analyzing mRNA-protein complexes using a yeast three-hybrid system. Methods 26, 123-141).

## CN(C)c1ccc2c(-c3ccc(CCl)cc3)c3ccc(=[N+](C)C)cc-3oc2c1 [TMR, tetramethylrosamine]
[1]
  concentration non-toxic to yeast: up to 1 μM
[2]
  Kd: 40 nM
[3]
  growth inhibition of yeast: Slight growth inhibition
[4]
  crossing of the S. cerevisiae cell wall: cross the S. cerevisiae cell wall

## VP16
[5]
  transcriptional activation, fold more potent than Gal4: 100 fold

## m26-15: evolved N40-26 variant SEQ ID NO: 28 CGCGGACCAAUGGU-CCCCCAAGUGGAUGCCUAAGCCUCUU (DNA CGCGGACCAAUGGUCCCCCAAGUGGAUGCCUAAGCCUCUU; listed as RNA, chemistry not given here)
[6]
  survival on media lacking histidine without LexA-MS2 fusion protein: unable to survive
